Results published in PubChem BioAssay (NCI).
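Each compound was tested at five concentrations against cells in 96-well plates for 48 hours. TGI marks complete inhibition of growth.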

What was measured:
Assay in all cases: inhibition of tumour cell growth, NCI panel, 48 h
SK-MEL-28 melanoma = test system: SK-MEL-28 melanoma
MALME-3M melanoma = test system: MALME-3M melanoma
UACC-62 melanoma = test system: UACC-62 melanoma
NCI/ADR-RES ovarian = test system: NCI/ADR-RES ovarian
SK-MEL-2 melanoma = test system: SK-MEL-2 melanoma
MDA-MB-435 = test system: MDA-MB-435
MCF7 breast = test system: MCF7 breast
786-0 renal = test system: 786-0 renal
UO-31 renal = test system: UO-31 renal
MDA-MB-231 breast = test system: MDA-MB-231 breast
TK-10 renal = test system: TK-10 renal
KM12 colon = test system: KM12 colon
NCI-H522 lung = test system: NCI-H522 lung
HCT-15 colon = test system: HCT-15 colon
IGROV1 ovarian = test system: IGROV1 ovarian
PC-3 prostate = test system: PC-3 prostate
SNB-19 CNS = test system: SNB-19 CNS
RPMI-8226 leukemia = test system: RPMI-8226 leukemia
EKVX NSCLC = test system: EKVX NSCLC
HOP-92 NSCLC = test system: HOP-92 NSCLC

Row | Structure (SMILES) | TGI (SK-MEL-28 melanoma) [µM] | TGI (MALME-3M melanoma) [µM] | TGI (UACC-62 melanoma) [µM] | TGI (NCI/ADR-RES ovarian) [µM] | TGI (SK-MEL-2 melanoma) [µM] | TGI (MDA-MB-435) [µM] | TGI (MCF7 breast) [µM] | TGI (786-0 renal) [µM] | TGI (UO-31 renal) [µM] | TGI (MDA-MB-231 breast) [µM] | TGI (TK-10 renal) [µM] | TGI (KM12 colon) [µM] | TGI (NCI-H522 lung) [µM] | TGI (HCT-15 colon) [µM] | TGI (IGROV1 ovarian) [µM] | TGI (PC-3 prostate) [µM] | TGI (SNB-19 CNS) [µM] | TGI (RPMI-8226 leukemia) [µM] | TGI (EKVX NSCLC) [µM] | TGI (HOP-92 NSCLC) [µM]
1 | O=C(CCCN1CCC2(CC1)CC(=O)N(N1CCOCC1)C2=O)c1ccc(F)cc1 | > 100 | > 100 | > 100 | > 100 | > 100 | > 100 | > 100 | > 100 | > 100 | > 100 | > 100 | > 100 | > 100 | > 100 | > 100 | > 100 | > 100 | > 100 | – | –
2 | N#CC1=C(c2ccccc2)C(=C2Nc3ccccc3N2)C2S/C(=C\c3ccccc3)C(=O)N2C1=N (stereo unspecified) | 10.5 | 4.07 | 4.76 | – | 4.05 | – | – | 6.09 | 3.74 | – | 4.78 | 15.1 | 3.52 | 10.3 | 4.71 | – | 11.7 | – | 5.2 | 2.67
3 | CCN(CC)CCN(C(=Nc1ccccc1)N1CCCCC1)c1ccccc1 | 46 | 40.1 | – | – | 37.7 | 20.6 | 56.7 | 85.9 | 26.5 | 38.8 | 97.8 | 23.9 | 13.2 | > 100 | 20.6 | 24.8 | > 100 | 8.71 | > 100 | –
4 | COC(=O)C1=COC(OC2OC(CO)C(O)C(O)C2O)C2C3CN4CCc5c([nH]c6ccccc56)C4(CC12)O3 (stereo unspecified) | > 100 | > 100 | > 100 | > 100 | > 100 | – | > 100 | > 100 | > 100 | > 100 | > 100 | > 100 | – | > 100 | > 100 | > 100 | > 100 | > 100 | > 100 | –
5 | O=C(CC(C(=O)c1cccs1)c1ccsc1)c1ccccc1 (stereo unspecified) | > 100 | – | > 100 | 80.4 | – | > 100 | 99.1 | > 100 | > 100 | 96.9 | > 100 | > 100 | > 100 | > 100 | > 100 | – | – | > 100 | > 100 | > 100
6 | O=C(Nc1cccc(C(F)(F)F)c1)C(=O)C1NC(=S)NC1=O (stereo unspecified) | > 100 | > 100 | > 100 | – | > 100 | – | – | > 100 | > 100 | – | > 100 | > 100 | – | > 100 | > 100 | – | > 100 | > 100 | > 100 | > 100
7 | NC(=O)/C(=N\NC(=O)C[n+]1ccccc1)C1NC(=O)NC1=O (stereo unspecified) | > 100 | > 100 | > 100 | – | > 100 | – | – | > 100 | > 100 | – | > 100 | > 100 | – | > 100 | > 100 | – | > 100 | > 100 | > 100 | > 100
8 | CC1(C)C2CC(O)C1CCC2=O (stereo unspecified) | > 100 | > 100 | > 100 | > 100 | > 100 | > 100 | > 100 | > 100 | > 100 | > 100 | > 100 | > 100 | > 100 | > 100 | – | > 100 | > 100 | > 100 | – | –
9 | O=C(NNC1=NCCCCN1)Nc1ccc(Cl)cc1 | > 100 | > 100 | > 100 | > 100 | > 100 | > 100 | > 100 | > 100 | > 100 | – | > 100 | > 100 | > 100 | > 100 | > 100 | > 100 | > 100 | > 100 | > 100 | > 100
10 | C[Si](C)(N[Si](C)(C)OCCc1ccccc1)OCCc1ccccc1 | > 100 | – | > 100 | > 100 | > 100 | > 100 | > 100 | > 100 | > 100 | – | > 100 | > 100 | – | > 100 | > 100 | > 100 | > 100 | > 100 | > 100 | > 100
11 | Cc1ccc(C(c2c(O)c3ccccc3n(-c3ccccc3)c2=O)c2c(O)c3ccccc3n(-c3ccccc3)c2=O)cc1 | > 100 | > 100 | – | – | > 100 | – | – | > 100 | > 100 | – | > 100 | > 100 | > 100 | > 100 | – | – | > 100 | > 100 | > 100 | > 100
12 | O=C1CC2(CCC3=C(O2)c2ccccc2NC(=O)C3)C(=O)c2ccccc2N1 (stereo unspecified) | > 100 | > 100 | > 100 | – | > 100 | – | – | > 100 | > 100 | – | > 100 | > 100 | > 100 | > 100 | > 100 | – | > 100 | > 100 | > 100 | –
13 | O=C1C=CC2(C=C1)CCNC1=C2C(=O)c2ccccc2C1=O | > 100 | > 100 | > 100 | – | > 100 | – | – | > 100 | > 100 | – | > 100 | > 100 | > 100 | > 100 | > 100 | – | – | > 100 | > 100 | > 100
14 | O=c1cc(CSc2c(-c3ccccc3)c(=O)n(-c3ccccc3)c(=S)n2-c2ccccc2)[nH]c(=O)[nH]1 | > 100 | – | > 100 | > 100 | > 100 | > 100 | > 100 | > 100 | > 100 | > 100 | > 100 | > 100 | – | > 100 | > 100 | > 100 | > 100 | > 100 | > 100 | –
